Legend:
Type in all cases: cell-based
SK-MEL-5 = assay: NCI 60 cell line screen (SRB), Melanoma
BT-549 = assay: NCI 60 cell line screen (SRB), Breast Cancer
SNB-19 = assay: NCI 60 cell line screen (SRB), CNS Cancer
KM12 = assay: NCI 60 cell line screen (SRB), Colon Cancer
HT29 = assay: NCI 60 cell line screen (SRB), Colon Cancer
UACC-62 = assay: NCI 60 cell line screen (SRB), Melanoma
MDA-MB231/ATCC = assay: NCI 60 cell line screen (SRB), Breast Cancer; settings: MDA- (first line of MDA-MB231/ATCC)
786-0 = assay: NCI 60 cell line screen (SRB), Renal Cancer
SW-620 = assay: NCI 60 cell line screen (SRB), Colon Cancer
LOX IMVI = assay: NCI 60 cell line screen (SRB), Melanoma
COLO 205 = assay: NCI 60 cell line screen (SRB), Colon Cancer; settings: PG=+50
RXF 393 = assay: NCI 60 cell line screen (SRB), Renal Cancer
SK-MEL2 = assay: NCI 60 cell line screen (SRB), Melanoma
[1] = test system: MB231/ATCC (second line of the wrapped label, with values of its own); assay: NCI 60 cell line screen (SRB), Breast Cancer
U251 = assay: NCI 60 cell line screen (SRB), CNS Cancer
OVCAR-5 = assay: NCI 60 cell line screen (SRB), Ovarian Cancer
ACHN = assay: NCI 60 cell line screen (SRB), Renal Cancer
TK-10 = assay: NCI 60 cell line screen (SRB), Renal Cancer
NCI-H226 = assay: NCI 60 cell line screen (SRB), Non-Small Cell Lung Cancer
EKVX = assay: as above
NCI-H522 = assay: as above
SNB-75 = assay: NCI 60 cell line screen (SRB), CNS Cancer
OVCAR-8 = assay: NCI 60 cell line screen (SRB), Ovarian Cancer
HOP-62 = assay: NCI 60 cell line screen (SRB), Non-Small Cell Lung Cancer
SF-295 = assay: NCI 60 cell line screen (SRB), CNS Cancer
SR = assay: NCI 60 cell line screen (SRB), Leukemia; settings: Table IV (LC50, PG=−50)
NCI-H460 = assay: NCI 60 cell line screen (SRB), Non-Small Cell Lung Cancer
CAKI-1 = assay: NCI 60 cell line screen (SRB), Renal Cancer
MCF7 = assay: NCI 60 cell line screen (SRB), Breast Cancer
NCI-H322M = assay: NCI 60 cell line screen (SRB), Non-Small Cell Lung Cancer
RPMI-8226 = assay: NCI 60 cell line screen (SRB), Leukemia; settings: Table IV (LC50, PG=−50)
IGROVI = assay: NCI 60 cell line screen (SRB), Ovarian Cancer
OVCAR-3 = assay: NCI 60 cell line screen (SRB), Ovarian Cancer; settings: PG=0
HCC-2998 = assay: NCI 60 cell line screen (SRB), Colon Cancer
MALME-3M = assay: NCI 60 cell line screen (SRB), Melanoma
MDA-MB-435 = assay: NCI 60 cell line screen (SRB), Breast Cancer

## CC1=C(C=Cc2cccc(C=CC3=C(C)C4CCC(C)C5CCC6(C)OOC45C(O3)O6)c2)OC2OC3(C)CCC4C(C)CCC1C24OO3 (stereo not drawn) [VII-h]
SK-MEL-5; PG=0
  Log10TGI: −6.21 log10M
SK-MEL-5; PG=+50
  Log10 GI50 or LC50: −7.36 log10M
BT-549; PG=0
  Log10TGI: −7.10 log10M
BT-549; PG=+50
  Log10GI50: <−8.00 log10M
BT-549; Table IV (LC50, PG=−50)
  Log10GI50: >−4.00 log10M
SNB-19; PG=0
  Log10TGI: >−4.00 log10M
SNB-19; PG=+50
  Log10GI50 or Log10LC50 (see condition): −7.09 log10M
SNB-19; Table IV (LC50, PG=−50)
  Log10GI50 or Log10LC50 (see condition): >−4.00 log10M
KM12; PG=0
  Log10TGI: >−4.00 log10M
KM12; PG=+50
  Log10GI50: −7.81 log10M
KM12; Table IV (LC50, PG=−50)
  Log10GI50: >−4.00 log10M
HT29; PG=0
  Log10TGI: >−4.00 log10M
HT29; PG=+50
  Log10GI50: −7.37 log10M
HT29; Table IV (LC50, PG=−50)
  Log10GI50: >−4.00 log10M
UACC-62; PG=0
  Log10TGI: >−4.00 log10M
UACC-62; PG=+50
  Log10GI50: −6.91 log10M
UACC-62; Table IV (LC50, PG=−50)
  Log10GI50: >−4.00 log10M
MDA-MB231/ATCC; PG=0
  Log10TGI: −5.35 log10M
MDA-MB231/ATCC; PG=+50
  Log10 GI50 or LC50 (per conditions): −6.49 log10M
MDA-MB231/ATCC; Table IV (LC50, PG=−50)
  Log10 GI50 or LC50 (per conditions): >−4.00 log10M
786-0; PG=0
  Log10TGI: >−4.00 log10M
786-0; PG=+50
  Log10GI50: −7.02 log10M
786-0; Table IV (LC50, PG=−50)
  Log10GI50: >−4.00 log10M
SW-620; PG=0
  Log10TGI: >−4.00 log10M
SW-620; PG=+50
  Log10GI50: −7.59 log10M
LOX IMVI; PG=0
  Log10TGI: −5.67 log10M
LOX IMVI; PG=+50
  Log10GI50: −7.40 log10M
LOX IMVI; Table IV (LC50, PG=−50)
  Log10GI50: −4.15 log10M
COLO 205
  Log10GI50: −7.88 log10M
RXF 393; PG=0
  Log10TGI: >−4.00 log10M
RXF 393; PG=+50
  Log10GI50: −6.48 log10M
RXF 393; Table IV (LC50, PG=−50)
  Log10GI50: >−4.00 log10M
SK-MEL2; PG=0
  Log10TGI: −5.34 log10M
SK-MEL2; PG=+50
  Log10 GI50 or LC50 (per conditions): −6.87 log10M
SK-MEL2; Table IV (LC50, PG=−50)
  Log10 GI50 or LC50 (per conditions): >−4.00 log10M
[1]; PG=0
  Log10TGI: −5.72 log10M
[1]; PG=+50
  Log10GI50: −7.31 log10M
[1]; Table IV (LC50, PG=−50)
  Log10GI50: >−4.00 log10M
U251; PG=0
  Log10TGI: >−4.00 log10M
U251; PG=+50
  Log10GI50: −7.26 log10M
U251; Table IV (LC50, PG=−50)
  Log10GI50: >−4.00 log10M
OVCAR-5; PG=0
  Log10TGI: >−4.00 log10M
OVCAR-5; PG=+50
  Log10GI50: −7.12 log10M
OVCAR-5; Table IV (LC50, PG=−50)
  Log10GI50: >−4.00 log10M
ACHN; PG=0
  Log10TGI: >−4.00 log10M
ACHN; PG=+50
  Log10 GI50 or LC50 (see conditions): −6.86 log10M
ACHN; Table IV (LC50, PG=−50)
  Log10 GI50 or LC50 (see conditions): >−4.00 log10M
TK-10; PG=0
  Log10TGI: >−4.00 log10M
TK-10; PG=+50
  Log10GI50: −7.22 log10M
TK-10; Table IV (LC50, PG=−50)
  Log10GI50: >−4.00 log10M
NCI-H226; PG=0
  Log10TGI: >−4.00 log10M
NCI-H226; PG=+50
  Log10GI50: >−4.00 log10M
NCI-H226; Table IV (LC50, PG=−50)
  Log10GI50: >−4.00 log10M
EKVX; PG=0
  Log10TGI: >−4.00 log10M
EKVX; PG=+50
  Log10GI50: −7.42 log10M
EKVX; Table IV (LC50, PG=−50)
  Log10GI50: >−4.00 log10M
NCI-H522; PG=0
  Log10TGI: >−4.00 log10M
NCI-H522; PG=+50
  Log10GI50: −7.22 log10M
NCI-H522; Table IV (LC50, PG=−50)
  Log10GI50: >−4.00 log10M
SNB-75; PG=0
  Log10TGI: −5.08 log10M
SNB-75; PG=+50
  Log10 GI50 (PG=+50) or LC50 (PG=−50): −6.99 log10M
SNB-75; Table IV (LC50, PG=−50)
  Log10 GI50 (PG=+50) or LC50 (PG=−50): >−4.00 log10M
OVCAR-8; PG=0
  Log10TGI: >−4.00 log10M
OVCAR-8; PG=+50
  Log10GI50: −7.33 log10M
OVCAR-8; Table IV (LC50, PG=−50)
  Log10GI50: >−4.00 log10M
HOP-62; PG=0
  Log10TGI: >−4.00 log10M
HOP-62; PG=+50
  Log10GI50: −7.08 log10M
HOP-62; Table IV (LC50, PG=−50)
  Log10GI50: >−4.00 log10M
SF-295; PG=0
  Log10TGI: >−4.00 log10M
SF-295; PG=+50
  Log10GI50: −6.39 log10M
SR
  Log10GI50: >−4.00 log10M
NCI-H460; PG=0
  Log10TGI: >−4.00 log10M
NCI-H460; PG=+50
  Log10 GI50 or Log10 LC50: −5.59 log10M
CAKI-1; PG=0
  Log10TGI: >−4.00 log10M
CAKI-1; PG=+50
  Log10GI50: −6.28 log10M
CAKI-1; Table IV (LC50, PG=−50)
  Log10GI50: >−4.00 log10M
MCF7; PG=0
  Log10TGI: −4.31 log10M
MCF7; PG=+50
  Log10GI50: −7.33 log10M
MCF7; Table IV (LC50, PG=−50)
  Log10GI50: >−4.00 log10M
NCI-H322M; PG=0
  Log10TGI: −5.88 log10M
NCI-H322M; PG=+50
  Log10GI50: −7.56 log10M
RPMI-8226
  Log10GI50: >−4.00 log10M
IGROVI; PG=0
  Log10TGI: −4.20 log10M
IGROVI; Table IV (LC50, PG=−50)
  Log10GI50: >−4.00 log10M
OVCAR-3
  Log10TGI: >−4.00 log10M
HCC-2998; PG=0
  Log10TGI: >−4.00 log10M
HCC-2998; PG=+50
  Log10GI50: −6.57 log10M
MALME-3M; PG=0
  Log10TGI: −4.17 log10M
MALME-3M; PG=+50
  Log10GI50: −6.94 log10M
MALME-3M; Table IV (LC50, PG=−50)
  Log10GI50: >−4.00 log10M
MDA-MB-435; MDA-MB-435, PG=0
  Log10TGI: >−4.00 log10M
MDA-MB-435; MDA-MB−435, PG=+50
  Log10GI50: −7.29 log10M
MDA-MB-435; Table IV (LC50, PG=−50), MDA-MB-435
  Log10GI50: >−4.00 log10M

— US20020055528A1, “Artemisinin analogs having antimalarial, antiproliferative, and antitumor activities and chemoselective methods of making the same” (priority 1999, published 2002)
